Like-named read-outs stand apart in the source and are kept apart here.

The nature of data set [1]: In vivo retention: plasma half-life in baboons by LC-MS/MS. The conditions noted are these: for half-life: baboon (P. Anubis). Also on record: species or system baboon (P. Anubis). As for the experimental part: A 96-well plate HLB Oasis 10 mg (Waters, Milford, Mass.) was employed for extraction. The SPE material was conditioned by addition of 500 μl of methanol followed by addition of 500 μL of milli-Q water. Sample was prepared by addition of the internal standard followed by 1:1 dilution with 4% H3PO4. After loading the sample, washing was carried out with 500 μL of 5% methanol in 0.1% formic acid. Sample was eluted with 150 μL of 65% methanol in 0.1% formic acid and collected in the collection plate. Solvent was evaporated to dryness in a speed-vac concentrator and reconstituted in 5% acetonitrile in 0.1% formic acid. Samples were kept at −20° C. until analysis.
Baboon plasma samples, 40 μL, were mixed with internal standard and dissolved 1:1 with 40 mM ammonium carbonate buffer. Rapigest detergent was added to a final concentration of 0.1%. Disulfide bridges were reduced in 5 mM DTT for 30 min at 60° C. Alkylation of cysteines was done by addition of iodoacetamide to a final concentration of 15 mM and incubation for 30 min in dark. The sample was enzymatically digested by addition of 16 μL of a 1 μG/μL trypsin solution and incubation overnight at 37° C. After that, the sample pH was lowered with 5% TFA to induce detergent degradation. To avoid nonspecific adsorption of very hydrophobic peptides, acetonitrile was added to 20%. The samples were centrifuged at 6° C. and 14000 rpm for 30 min and the supernatant was diluted with 0.1% formic acid to reduce acetonitrile concentration to 10% prior to filtration with a 10 kDa cut-off microcon centrifugal filter (Millipore, Billerica, Mass.). The filter was washed with 50 μL of 10% ACN in 0.1% formic acid and the collected sample was evaporated to dryness and reconstituted with 10% ACN in 0.1% formic acid.
LC-MS/MS analysis was performed on a SYNAPT HDMS (Waters, Milford, Mass.) controlled by MassLynx 4.1 software (Waters) and equipped with a nanoESI source. Each sample was injected in triplicate. A nanoACQUITY UPLC (Waters) system was used for peptide separation by reversed-phase liquid chromatography. After injection, analytes were trapped for 3 min with 3% mobile phase A (0.1% formic acid in water) at 5 μl/min on a 5 μm Symmetry C18 column (180 μm×20 mm, Waters) and further separated on a 1.7 μm BEH130 C18 column (75 μm×150 mm, Waters). The analytical column temperature was held at 35° C. Peptides were separated at flow rate 0.3 μl/min. The gradient was linear 3-40% B (0.1% formic acid in acetonitrile), either 50 min long, or 60 min for the digested samples. The capillary voltage was 3.2 kV, the cone voltage was 35 V and the source temperature was 100° C. [Glu1]-fibrinogen peptide was used for lock-mass correction with a sampling rate of 30 s. Mass spectra were acquired in positive mode over an m/z range 400-2000 Da at scan rate 0.6 s. The time window used for the MS/MS function was ±3 min of the retention time of the selected peptide. The presence of the analyte was confirmed by MS/MS. Selectivity was studied by analysis of blank samples to determine the presence of any interference coeluting with the analyte.
Juvenile baboons (P. Anubis, Baboon Research Resources, University of Oklahoma) weighing 5-8 kg were used. Three baboons were used for the study; one for each compound. All animals received a bolus dose of peptides (10 mg) by injection through the peripheral vein. […]

For a further data set, the target named is T1, C3b (Homo sapiens, UniProt P01024).
T1 construct: biotin (chemical biotinylation of C3b)
The data set is described as follows: SPR analysis of binding kinetics to immobilized C3b. The settings on record: SPR, Table 2-1. As for the experimental part: (§1) The kinetics of the interaction between C3b and each compstatin analog was analyzed by SPR on a Biacore 3000 instrument (GE Healthcare Corp., Piscataway, N.J.) at 25° C. using PBS-T (10 mM sodium phosphate, 150 mM NaCl, 0.005% Tween-20, pH 7.4) as the running buffer, as described above. In brief, biotinylated C3b (30 μg/mL) was immobilized on a streptavidin-coated sensor chip, and a two-fold serial dilution series (1 μM-500 pM) of each analog was injected for 2 min at 30 μl/min, with a dissociation phase of 5-10 min. Peptide [Trp(Me)^4]-Ac-compstatin was included in each experimental series as an internal control and reference. Data analysis was performed using Scrubber (BioLogic Software, Campbell, Australia). The signals from an untreated flow cell and an ensemble of buffer blank injections were subtracted to correct for buffer effects and injection artifacts. Processed biosensor data were globally fitted to a 1:1 Langmuir binding model, and the equilibrium dissociation constant (KD) was calculated from the equation KD=kd/ka. Peptide solutions were injected in duplicate in every experiment, and each screening assay was performed at least twice.
as §1, with “in Example 1.” for “above.”, “μg/ml)” for “μg/mL)”, “Peptide [Trp(Me)^4]-Ac-compstatin was included in each experimental series as an internal control and reference.” left out
For orientation: In SPR one partner is held on a chip, and binding of the other changes the refractive index at the surface.

The test system of data set [2] is classical pathway of complement. Briefly: Inhibition of classical pathway complement activation, ELISA in human serum. Type of data set: biochemical. The settings on record: relative to peptide 1; NA: not active. As for the experimental part:
The ability of the compstatin analogs to inhibit the activation of the classical pathway of complement was assessed by ELISA (Mallik et al., 2005, J Med Chem 48:274-86). In brief, complement was activated in human serum using an antigen-antibody complex in the presence or absence of compstatin analogs, and the deposition of C3 fragments on the plate surface was detected using an HRP-conjugated polyclonal anti-C3 antibody. […] The percent inhibition was plotted against the peptide concentration, and the resulting data set was fitted to the logistic dose-response function using Origin 7.0 software. IC50 values were obtained from the fitted parameters that produced the lowest χ^2 value. Each analog was assayed at least three to seven times.
The ability of the compstatin analogs to inhibit the activation of the classical pathway of complement was assessed by ELISA as described in Example 1. Each conjugate was assayed at least three times.
Background: ELISA stands for enzyme-linked immunosorbent assay.

Data set [3] shares this test system. The conditions noted are these: data from Sahu et al., 1996; cited from earlier work.

T1 sequence (P01024 23-667 limits assumed): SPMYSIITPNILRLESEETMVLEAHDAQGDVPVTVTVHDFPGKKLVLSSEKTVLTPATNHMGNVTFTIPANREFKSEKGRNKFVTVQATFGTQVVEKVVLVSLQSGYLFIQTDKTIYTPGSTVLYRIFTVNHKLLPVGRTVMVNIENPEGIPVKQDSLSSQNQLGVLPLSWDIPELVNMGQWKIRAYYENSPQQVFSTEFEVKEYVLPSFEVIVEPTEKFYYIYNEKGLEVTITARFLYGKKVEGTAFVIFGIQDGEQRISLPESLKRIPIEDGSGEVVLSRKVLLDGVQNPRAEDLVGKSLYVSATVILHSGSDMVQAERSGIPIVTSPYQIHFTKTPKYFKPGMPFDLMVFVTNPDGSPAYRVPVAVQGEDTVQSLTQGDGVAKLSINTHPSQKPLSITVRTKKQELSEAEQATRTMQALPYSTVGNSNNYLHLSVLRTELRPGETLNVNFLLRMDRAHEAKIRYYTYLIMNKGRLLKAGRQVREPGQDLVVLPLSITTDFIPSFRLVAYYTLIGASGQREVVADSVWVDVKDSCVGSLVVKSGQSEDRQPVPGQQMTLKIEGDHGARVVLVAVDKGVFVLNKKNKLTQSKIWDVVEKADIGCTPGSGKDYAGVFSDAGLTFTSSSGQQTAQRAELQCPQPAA
T1 sequence (P01024 749-1663 limits assumed): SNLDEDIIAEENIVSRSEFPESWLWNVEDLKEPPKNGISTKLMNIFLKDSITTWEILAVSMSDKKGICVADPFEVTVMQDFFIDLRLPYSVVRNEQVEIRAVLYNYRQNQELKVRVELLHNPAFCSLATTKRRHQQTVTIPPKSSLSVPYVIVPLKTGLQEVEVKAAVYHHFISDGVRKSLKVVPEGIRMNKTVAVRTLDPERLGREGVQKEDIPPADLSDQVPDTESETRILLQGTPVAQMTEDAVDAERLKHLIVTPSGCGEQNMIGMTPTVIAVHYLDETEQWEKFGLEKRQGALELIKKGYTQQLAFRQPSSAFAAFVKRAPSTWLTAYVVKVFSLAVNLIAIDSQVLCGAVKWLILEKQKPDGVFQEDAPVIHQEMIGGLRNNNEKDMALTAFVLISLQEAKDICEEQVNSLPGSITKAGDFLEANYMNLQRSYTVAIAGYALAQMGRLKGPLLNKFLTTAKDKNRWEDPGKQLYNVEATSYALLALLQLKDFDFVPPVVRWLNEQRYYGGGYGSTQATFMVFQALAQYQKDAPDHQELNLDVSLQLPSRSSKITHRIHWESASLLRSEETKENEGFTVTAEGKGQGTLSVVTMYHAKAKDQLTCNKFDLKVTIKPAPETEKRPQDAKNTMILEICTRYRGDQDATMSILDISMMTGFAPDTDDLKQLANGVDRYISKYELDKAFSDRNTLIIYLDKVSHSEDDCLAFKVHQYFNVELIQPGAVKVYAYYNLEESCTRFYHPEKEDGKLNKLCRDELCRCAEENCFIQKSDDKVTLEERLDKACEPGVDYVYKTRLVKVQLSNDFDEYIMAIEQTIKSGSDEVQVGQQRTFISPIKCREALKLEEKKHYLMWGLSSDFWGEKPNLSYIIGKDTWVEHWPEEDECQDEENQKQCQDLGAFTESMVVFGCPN

In data set [1] (in vivo, iv, 10 mg), `CC[C@H](C)[C@H](NC(C)=O)C(=O)N[C@H]1CSSC[C@@H](C(=O)N[C@H](C(=O)NCCOCCOCCOCC(=O)NCCOCCOCCOCC(=O)N[C@@H](CCCCNC(=O)CCNS(=O)(=O)c2ccc3ccccc3c2)C(N)=O)[C@@H](C)CC)NC(=O)[C@H](CCCNC(=N)N)NC(=O)[C@H](Cc2c[nH]cn2)NC(=O)[C@H](C)NC(=O)CN(C)C(=O)[C@H](Cc2c[nH]c3ccccc23)NC(=O)[C@H](CC(=O)O)NC(=O)[C@H](CCC(N)=O)NC(=O)[C@H](Cc2cn(C)c3ccccc23)NC(=O)[C@H](C(C)C)NC1=O` [Peptide 17-ABM] had a half-life of 5 h. Further, in data set [1] (in vivo), the “fold improvement of half-life” value was 5 fold. At C3b, the Kd came out at 4.7 nM; the Koff is on record as 5.6 10^−3, s^−1; the Kon is recorded as 1.2 10^6, M^−1 · s^−1.
In data set [2], “Ac-I[CVYQDWGAHRC]T-NH2 [Peptide 1, reference compound]” had an IC50-fold change of 1. Moreover, the IC50 in data set [3] was 2400 nM.
As for `CC[C@H](C)[C@H](NC(C)=O)C(=O)N[C@H]1CSSC[C@@H](C(=O)N[C@H](C(=O)NCCOCCOCCOCC(=O)NCCOCCOCCOCC(=O)N[C@@H](CCCCNC(=O)Cn2cc(C(=O)N[C@@H](CCCNC(=N)N)C(=O)N[C@@H](CC(C)C)C(=O)N[C@H](C(=O)N[C@@H](CCC(=O)O)C(=O)N[C@@H](CC(=O)O)C(=O)N[C@H](C(=O)N[C@H]3CSSC[C@@H](C(=O)N[C@@H](CC(C)C)C(=O)N[C@@H](Cc4c[nH]c5ccccc45)C(=O)N[C@@H](CCC(=O)O)C(=O)N[C@@H](CC(=O)O)C(=O)N[C@@H](CC(=O)O)C(N)=O)NC(=O)CNC(=O)[C@H](Cc4c[nH]c5ccccc45)NC(=O)[C@H](CCCNC(=N)N)NC(=O)[C@@H]4CCCN4C(=O)[C@H](CC(C)C)NC3=O)[C@@H](C)CC)[C@@H](C)CC)nn2)C(N)=O)[C@@H](C)CC)NC(=O)[C@H](CCCNC(=N)N)NC(=O)[C@H](Cc2c[nH]cn2)NC(=O)[C@H](C)NC(=O)CN(C)C(=O)[C@H](Cc2c[nH]c3ccccc23)NC(=O)[C@H](CC(=O)O)NC(=O)[C@H](CCC(N)=O)NC(=O)[C@H](Cc2cn(C)c3ccccc23)NC(=O)[C@H](C(C)C)NC1=O` [Peptide 17-ABP], the half-life in data set [1] (in vivo, baboon, intravenous bolus 10 mg, read-out: plasma half-life (converted)) was 21 h. In addition, in data set [1] (relative to unconjugated peptide 17, baboon), the “fold improvement of half-life” value came out at 21 fold. Moreover, at C3b, binding was put at a Kd of 32 nM; the Koff was 3.6 10^−3, s^−1; the Kon is reported as 0.1 10^6, M^−1 · s^−1.

Usually half-life stands for the time in which the quantity being followed falls by half. The Kd is the equilibrium constant for the complex coming apart. The low end stands for tighter binding, the high end for weaker binding. As a reminder, the IC50 is the concentration needed to halve the response being measured.

The record behind these values is patent US9371365B2, “Modified compstatin with peptide backbone and C-terminal modifications” (The Trustees of the University of Pennsylvania, priority 2009, dated 2016).
